Molecular target: T1, GR (Homo sapiens, UniProt P04150)
T1 construct: expressed in transfected cells; host or cells: CHO-K1
T1 sequence (P04150 1-777): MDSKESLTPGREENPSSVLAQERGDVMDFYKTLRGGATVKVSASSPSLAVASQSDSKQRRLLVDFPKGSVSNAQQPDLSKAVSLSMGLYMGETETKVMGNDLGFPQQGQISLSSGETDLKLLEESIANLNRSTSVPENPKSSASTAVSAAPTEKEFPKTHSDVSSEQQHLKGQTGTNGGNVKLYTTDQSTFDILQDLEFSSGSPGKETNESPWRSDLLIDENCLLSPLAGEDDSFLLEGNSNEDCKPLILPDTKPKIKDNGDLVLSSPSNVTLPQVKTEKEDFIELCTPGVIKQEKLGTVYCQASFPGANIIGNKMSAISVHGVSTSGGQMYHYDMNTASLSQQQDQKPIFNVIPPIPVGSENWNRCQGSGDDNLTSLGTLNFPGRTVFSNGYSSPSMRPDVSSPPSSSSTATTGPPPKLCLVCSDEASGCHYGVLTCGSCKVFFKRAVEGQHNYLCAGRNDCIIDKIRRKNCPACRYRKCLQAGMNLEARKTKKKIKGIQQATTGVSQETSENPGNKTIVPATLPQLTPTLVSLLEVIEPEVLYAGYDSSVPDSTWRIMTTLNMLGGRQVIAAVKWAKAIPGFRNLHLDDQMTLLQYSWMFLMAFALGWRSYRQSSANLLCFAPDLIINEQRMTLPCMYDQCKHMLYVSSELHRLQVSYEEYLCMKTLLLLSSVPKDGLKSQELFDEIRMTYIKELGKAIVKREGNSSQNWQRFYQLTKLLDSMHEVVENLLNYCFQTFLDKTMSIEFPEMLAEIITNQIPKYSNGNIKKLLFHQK
Assay: In Vitro GR Luciferase Reporter Assay (antagonist mode, CHO-K1-GR-MMTV-Luc reporter cells)
Format: cell-based
Details: antagonist assay with 10 nM Dexamethasone, 18-24 hours
Source text: Example A: In Vitro GR Luciferase Reporter Assay
Cell Line: CHO-K1-GR-MMTV-Luc reporter cells
Culture Media: DMEM (with phenol red)+10% FBS
Assay Media: DMEM (without phenol red)+10% CSS
Culture CHO-K1I-GR-MMTV-Luc reporter cells in 15 cm plates in Culture Media at conditions less than 90% confluence.
Prepare 200×DMSO 1:5 serial dilutions of control and test compounds in 96-well non-sterile V bottom plate in DMSO, 8serial dilutions for each compound.
Prepare 5× Assay Media diluted compound serial dilutions in 96-well non-sterile V bottom plate: Add 97.5 uL/well of Assay Media into 96-well then add 2.5 ul of 200× concentration of compounds and mix well.
Seed cells for Antagonist Assay: […] CHO-K1-GR-MMTV-Luc reporter cells were seeded in a Corning 3707 flat clear bottom 384-well white TC plate in 20 ul of Assay Media containing 12.5 nM Dexamethasone (final concentration=10 nM).
Add compounds: 5 ul of assay media diluted compounds were added to appropriate wells and followed a quick spin (1000 rpm, 10 sec) to bring media and cells to the bottom of plate. The plates were covered with SealMate film to avoid evaporation and placed in 37° C. incubator for approximately 18-24 hours.
Read plates: Equilibrate appropriate amount of Promega OneGlo luciferase reagent to room temperature. Remove the plates from incubator and add 25 uL of OneGlo reagent/well by multiple channel pipette and read the plates with Tecan F500 luminometer within 3 minutes.
The ability of the compounds disclosed herein to inhibit GR activity was quantified and the respective IC50 value was determined. Table 1and Table 2provide the cellular IC50 values of compounds disclosed herein.

IC50	SMILES
≤ 100 nM	CN([C@@H]1CCC2=Cc3c(cnn3-c3ccc(F)cc3)C[C@]2(C(=O)c2cc(C(F)(F)F)ccn2)C1)S(=O)(=O)c1cnn(C)c1 [Example 95, N-((4aS,6R)-1-(4-fluorophenyl)-4a-(4-(trifluoromethyl)picolinoyl)-4,4a,5,6,7,8-hexahydro-1H-benzo[f]indazol-6-yl)-N,1-dimethyl-1H-pyrazole-4-sulfonamide]
100 to 1000 nM	O=C(c1nccs1)[C@]12Cc3cnn(-c4ccc(F)cc4)c3C=C1CC[C@@H](S(=O)(=O)c1ccc(C(F)(F)F)cc1)C2 [Example 13, ((4aS,6R)-1-(4-fluorophenyl)-6-((4-(trifluoromethyl)phenyl)sulfonyl)-1,4,5,6,7,8-hexahydro-4aH-benzo[f]indazol-4a-yl)(thiazol-2-yl)methanone]
100 to 1000 nM	O=C(c1nccs1)[C@]12Cc3cnn(-c4ccc(F)cc4)c3C=C1CC[C@H](S(=O)(=O)c1ccc(C(F)(F)F)cc1)C2 [Example 12, ((4aS,6S)-1-(4-fluorophenyl)-6-((4-(trifluoromethyl)phenyl)sulfonyl)-1,4,5,6,7,8-hexahydro-4aH-benzo[f]indazol-4a-yl)(thiazol-2-yl)methanone]
≤ 100 nM	CCN([C@H]1CCC2=Cc3c(cnn3-c3ccc(F)cc3)C[C@]2(C(=O)c2ccc(C3CC3)cn2)C1)S(=O)(=O)c1ccc(Cl)cc1 [Example 110, 4-chloro-N-((4aS,6S)-4a-(5-cyclopropylpicolinoyl)-1-(4-fluorophenyl)-4,4a,5,6,7,8-hexahydro-1H-benzo[f]indazol-6-yl)-N-ethylbenzenesulfonamide]

Continued, compound first:

SMILES	IC50
O=C(c1ccccn1)[C@]12Cc3cnn(-c4ccc(F)cc4)c3C=C1CC[C@H](S(=O)(=O)C1CCOCC1)C2 [Example 46, ((4aS,6S)-1-(4-fluorophenyl)-6-((tetrahydro-2H-pyran-4-yl)sulfonyl)-1,4,5,6,7,8-hexahydro-4aH-benzo[f]indazol-4a-yl)(pyridin-2-yl)methanone]	≤ 100 nM
CC(C)S(=O)(=O)[C@H]1CCC2=Cc3c(cnn3-c3ccc(F)cc3)C[C@]2(C(=O)c2ccccn2)C1 [Example 63, ((4aS,6S)-1-(4-fluorophenyl)-6-(isopropylsulfonyl)-1,4,5,6,7,8-hexahydro-4aH-benzo[f]indazol-4a-yl)(pyridin-2-yl)methanone]	≤ 100 nM
O=C(c1cc(C(F)(F)F)ccn1)[C@]12Cc3cnn(-c4ccc(F)cc4)c3C=C1CC[C@H](S(=O)(=O)c1cccnc1)C2 [Example 54, ((4aS,6S)-1-(4-fluorophenyl)-6-(pyridin-3-ylsulfonyl)-1,4,5,6,7,8-hexahydro-4aH-benzo[f]indazol-4a-yl)(4-(trifluoromethyl)pyridin-2-yl)methanone]	≤ 100 nM
CCn1ncc(S(=O)(=O)[C@H]2CCC3=Cc4c(cnn4-c4ccc(F)cc4)C[C@]3(C(=O)c3ccc(C(F)(F)F)cn3)C2)n1 [Example 77, ((4aS,6S)-6-((2-ethyl-2H-1,2,3-triazol-4-yl)sulfonyl)-1-(4-fluorophenyl)-1,4,5,6,7,8-hexahydro-4aH-benzo[f]indazol-4a-yl)(5-(trifluoromethyl)pyridin-2-yl)methanone]	≤ 100 nM
O=C(c1ccccn1)[C@]12Cc3cnn(-c4ccc(F)cc4)c3C=C1CC[C@H](S(=O)(=O)c1ccc(F)cc1)C2 [Example 25, ((4aS,6S)-1-(4-fluorophenyl)-6-((4-fluorophenyl)sulfonyl)-1,4,5,6,7,8-hexahydro-4aH-benzo[f]indazol-4a-yl)(pyridin-2-yl)methanone]	≤ 100 nM
Cc1ccnc(C(=O)[C@]23Cc4cnn(-c5ccc(F)cc5)c4C=C2CC[C@@H](S(=O)(=O)c2ccccc2)C3)c1 [Example 38, ((4aS,6R)-1-(4-fluorophenyl)-6-(phenylsulfonyl)-1,4,5,6,7,8-hexahydro-4aH-benzo[f]indazol-4a-yl)(4-methylpyridin-2-yl)methanone]	≤ 100 nM
O=C(c1ccccn1)[C@]12Cc3cnn(-c4ccc(F)cc4)c3C=C1CC[C@H](S(=O)(=O)c1cccc(Cl)c1)C2 [Example 37, ((4aS,6S)-6-((3-chlorophenyl)sulfonyl)-1-(4-fluorophenyl)-1,4,5,6,7,8-hexahydro-4aH-benzo[f]indazol-4a-yl)(pyridin-2-yl)methanone]	≤ 100 nM
CCn1cc(S(=O)(=O)[C@H]2CCC3=Cc4c(cnn4-c4ccc(F)cc4)C[C@]3(C(=O)c3cc(C(F)(F)F)ccn3)C2)cn1 [Example 76, ((4aS,6S)-6-((1-ethyl-1H-pyrazol-4-yl)sulfonyl)-1-(4-fluorophenyl)-1,4,5,6,7,8-hexahydro-4aH-benzo[f]indazol-4a-yl)(4-(trifluoromethyl)pyridin-2-yl)methanone]	≤ 100 nM

Same assay, conditions: antagonist mode, 10 nM Dexamethasone

IC50	SMILES
≤ 100 nM	CC(C)N([C@H]1CCC2=Cc3c(cnn3-c3ccc(F)cc3)C[C@]2(C(=O)c2ncc(C3CC3)s2)C1)S(=O)(=O)c1cnn(C)c1 [Example 192, N-((4aS,6S)-4a-(5-cyclopropylthiazole-2-carbonyl)-1-(4-fluorophenyl)-4,4a,5,6,7,8-hexahydro-1H-benzo[f]indazol-6-yl)-N-isopropyl-1-methyl-1H-pyrazole-4-sulfonamide]
≤ 100 nM	CN([C@H]1CCC2=Cc3c(cnn3-c3ccc(F)cc3)C[C@]2(C(=O)c2nccs2)C1)S(=O)(=O)c1cnn(C2CC2)n1 [Example 162, 2-cyclopropyl-N-((4aS,6S)-1-(4-fluorophenyl)-4a-(thiazole-2-carbonyl)-4,4a,5,6,7,8-hexahydro-1H-benzo[f]indazol-6-yl)-N-methyl-2H-1,2,3-triazole-4-sulfonamide]
≤ 100 nM	Cc1nc(S(=O)(=O)N(C2CC2)[C@H]2CCC3=Cc4c(cnn4-c4ccc(F)cc4)C[C@]3(C(=O)c3ncc(C(F)(F)F)s3)C2)cn1C [Example 336, N-cyclopropyl-N-((4aS,6S)-1-(4-fluorophenyl)-4a-(5-(trifluoromethyl)thiazole-2-carbonyl)-4,4a,5,6,7,8-hexahydro-1H-benzo[f]indazol-6-yl)-1,2-dimethyl-1H-imidazole-4-sulfonamide]
≤ 100 nM	Cn1ncc(S(=O)(=O)N(CC2(O)CC2)[C@H]2CCC3=Cc4c(cnn4-c4ccc(F)cc4)C[C@]3(C(=O)c3ncc(C(F)(F)F)s3)C2)n1 [Example 292, N-((4aS,6S)-1-(4-fluorophenyl)-4a-(5-(trifluoromethyl)thiazole-2-carbonyl)-4,4a,5,6,7,8-hexahydro-1H-benzo[f]indazol-6-yl)-N-((1-hydroxycyclopropyl)methyl)-2-methyl-2H-1,2,3-triazole-4-sulfonamide]

More lines, now with the values behind:

SMILES	IC50
Cn1ccc(S(=O)(=O)CC2CCC3=Cc4c(cnn4-c4ccc(F)cc4)C[C@]3(C(=O)c3cc(Cl)ccn3)C2)n1 (stereo partly drawn) [Example 364, (4-chloropyridin-2-yl)((4aR)-1-(4-fluorophenyl)-6-(((1-methyl-1H-pyrazol-3-yl)sulfonyl)methyl)-1,4,5,6,7,8-hexahydro-4aH-benzo[f]indazol-4a-yl)methanone]	≤ 100 nM
Cn1cnc(S(=O)(=O)[C@H]2CCC3=Cc4c(cnn4-c4ccc(F)cc4)C[C@]3(C(=O)c3cc(C(F)(F)F)ccn3)C2)n1 [Example 365, ((4aS,6S)-1-(4-fluorophenyl)-6-((1-methyl-1H-1,2,4-triazol-3-yl)sulfonyl)-1,4,5,6,7,8-hexahydro-4aH-benzo[f]indazol-4a-yl)(4-(trifluoromethyl)pyridin-2-yl)methanone]	≤ 100 nM
CC(C)CN([C@H]1CCC2=Cc3c(cnn3-c3ccc(F)cc3)C[C@]2(C(=O)c2cc(Cl)ccn2)C1)S(=O)(=O)c1ccn(C)n1 [Example 249, N-((4aS,6S)-4a-(4-chloropicolinoyl)-1-(4-fluorophenyl)-4,4a,5,6,7,8-hexahydro-1H-benzo[f]indazol-6-yl)-N-isobutyl-1-methyl-1H-pyrazole-3-sulfonamide]	≤ 100 nM
